Measured values published in patent US20200148646A1, “6-S[…] 7-S[…] ANALOGS AND THE USE THEREOF” (Purdue Pharma, L.P., priority 2013, published 2020).

How the values were obtained:
[1] = molecular target: μ-opioid receptor (Homo sapiens, UniProt P35372); assay: μ-opioid receptor [35S]GTPγS functional assay, U-2 OS cells; assay type: biochemical; parameters: host or cells: U-2 OS cells; settings: for Emax: U2-OS cells, relative to DAMGO
Experimental: [^35S]GTPγS functional assays were conducted using freshly thawed μ-receptor membranes prepared in-house from a cell line expressing recombinant opioid receptor in a HEK-293, CHO or U-2 OS cell background, or purchased from a commercial source (Perkin Elmer, Shelton, Conn.; or DiscovRx, Fremont, Calif.). Assay reactions were prepared by sequentially adding the following reagents to binding buffer (100 mM NaCl, 10 mM MgCl2, 20 mM HEPES, pH 7.4) on ice (final concentrations indicated): membrane protein (0.026 mg/mL), saponin ([…]), GDP ([…]) and [^35S]GTPγS (0.20 nM; Perkin Elmer, Shelton, Conn.). The prepared membrane solution (190 l/well) was transferred to 96-shallow well polypropylene plates containing 10 μl of 20× concentrated stock solutions of the agonist [D-Ala^2, N-methyl-Phe^4 Gly-ol^5]-enkephalin (DAMGO) prepared in dimethyl sulfoxide (DMSO). Plates were incubated for 30 min at about 25° C. with shaking. Reactions were terminated by rapid filtration onto 96-well Unifilter GF/B filter plates (Perkin Elmer, Shelton, Conn.) using a 96-well tissue harvester (Perkin Elmer, Shelton, Conn.) followed by three filtration washes with 200 μl of ice-cold wash buffer (10 mM NaH2PO4, 10 mM Na2HPO4, pH 7.4). Filter plates were subsequently dried at 50° C. for 2-3 hr. BetaScint scintillation cocktail (Perkin Elmer, Shelton, Conn.) was added (50 μl/well) and plates were counted using a Packard Top-Count for 1 min/well. Data were analyzed using the sigmoidal dose-response curve fitting functions in GraphPad PRISM v. 3.0, or an in-house function for non-linear, sigmoidal dose-response curve-fitting.
μ GTP EC50 is the concentration of a compound providing 50% of the maximal response for the compound at a μ-opioid receptor.
μ GTP Emax (%) is the maximal effect elicited by a compound relative to the effect elicited by DAMGO, a standard agonist. Generally, the μ GTP Emax (%) value measures the efficacy of a compound to treat or prevent pain or other Conditions.
(§1) In TABLE 2A, activity response of certain Compounds of the Invention at the μ- and κ-opioid receptors using U-2 OS cells was determined as described above for functional assays.

[2] = molecular target: human κ opioid receptor (Homo sapiens, UniProt P41145); assay: κ-opioid receptor [35S]GTPγS functional assay, U-2 OS cells; assay type: biochemical; parameters: expressed in transfected cells; host or cells: U-2 OS cells (in-house membranes); settings: for Emax: U2-OS cells, relative to U69,593
Experimental: Membranes from recombinant HEK-293 cells, CHO or U-2 OS cells expressing the recombinant human K opioid receptor (K) were prepared by lysing cells in ice cold hypotonic buffer (2.5 mM MgCl2, 50 mM HEPES, pH 7.4) (10 mL/10 cm dish) followed by homogenization with a tissue grinder/Teflon pestle. Functional [^35S]GTPγS binding assays were conducted as follows. K opioid receptor membrane solution was prepared by sequentially adding final concentrations of 0.026 μg/μl κ membrane protein (in-house), 10 μg/mL saponin, 3 μM GDP and 0.20 nM [^35S]GTPγS to binding buffer (100 mM NaCl, 10 mM MgCl2, 20 mM HEPES, pH 7.4) on ice. The prepared membrane solution (190 μl/well) was transferred to 96-shallow well polypropylene plates containing 10 μl of 20× concentrated stock solutions of agonist prepared in DMSO. Plates were incubated for 30 min at a temperature of about 25° C. with shaking. Reactions were terminated by rapid filtration onto 96-well Unifilter GF/B filter plates (Perkin Elmer, Shelton, Conn.) using a 96-well tissue harvester (Packard) and followed by three filtration washes with 200 μl ice-cold binding buffer (10 mM NaH2PO4, 10 mM Na2HPO4, pH 7.4). Filter plates were subsequently dried at 50° C. for 2-3 hours. Fifty μl/well scintillation cocktail (Perkin Elmer, Shelton, Conn.) was added and plates were counted in a Packard Top-Count for 1 min/well.
κ GTP EC50 is the concentration of a compound providing 50% of the maximal response for the compound at a κ receptor.
κ GTP Emax (%) is the maximal effect elicited by a compound relative to the effect elicited by U69,593.
as §1

Sequence of μ-opioid receptor (P35372 whole entry, species assumed): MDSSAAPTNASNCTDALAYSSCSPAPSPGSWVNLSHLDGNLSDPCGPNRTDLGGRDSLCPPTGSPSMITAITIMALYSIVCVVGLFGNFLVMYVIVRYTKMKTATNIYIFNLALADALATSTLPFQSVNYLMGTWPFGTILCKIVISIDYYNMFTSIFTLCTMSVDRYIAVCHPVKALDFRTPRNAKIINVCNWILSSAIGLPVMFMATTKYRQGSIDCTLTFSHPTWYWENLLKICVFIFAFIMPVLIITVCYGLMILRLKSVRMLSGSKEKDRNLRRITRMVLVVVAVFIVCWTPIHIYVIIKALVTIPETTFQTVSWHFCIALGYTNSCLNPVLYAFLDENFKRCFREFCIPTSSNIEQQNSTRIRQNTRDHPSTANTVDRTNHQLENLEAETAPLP
Sequence of human κ opioid receptor (P41145 whole entry): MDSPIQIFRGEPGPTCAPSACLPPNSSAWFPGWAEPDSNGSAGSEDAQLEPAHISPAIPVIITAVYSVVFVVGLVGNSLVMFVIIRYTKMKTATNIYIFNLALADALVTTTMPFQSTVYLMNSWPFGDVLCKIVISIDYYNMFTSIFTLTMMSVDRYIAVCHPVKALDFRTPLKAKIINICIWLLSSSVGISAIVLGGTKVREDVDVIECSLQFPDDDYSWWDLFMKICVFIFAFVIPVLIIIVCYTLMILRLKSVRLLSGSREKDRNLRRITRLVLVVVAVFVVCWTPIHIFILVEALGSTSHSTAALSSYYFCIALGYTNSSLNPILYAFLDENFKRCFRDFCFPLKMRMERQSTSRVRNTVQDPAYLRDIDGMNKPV

Structure (SMILES)	EC50 [1] [nM]	Emax [1] [%]	EC50 [2] [nM]	Emax [2] [%]
COc1ccc2c(c1)[C@@]13CCC(=O)C[C@@]1(O)[C@@H](C2)N(CC1CC1)CC3 [Compound 31, (4bS,8aS,9R)-11-(cyclopropylmethyl)-8a-hydroxy-3-methoxy-5,6,8,8a,9,10-hexahydro-7H-9,4b-(epiminoethano)phenanthren-7-one]	740 ± 49.5	57.3 ± 2.73	633 ± 87.1	108 ± 3.76
N=C(N)NCCN[C@H]1CC[C@]23CCN(CC4CC4)[C@H](Cc4ccc(O)cc42)[C@]3(O)C1 [Compound 32, 1-(2-(((4bS,7S,8aS,9R)-11-(cyclopropylmethyl)-3,8a-dihydroxy-6,7,8,8a,9,10-hexahydro-5H-9,4b-(epiminoethano)phenanthren-7-yl)amino)ethyl)guanidine]	> 20000	5.33 ± 1.45	> 20000	-1
COc1ccc2c(c1)[C@]13CCN(CC4CC4)[C@H](C2)[C@]1(O)C[C@@H](NCC(C)C)[C@@H](O)C3 [Compound 33, (4bR,6S,7R,8aS,9R)-11-(cyclopropylmethyl)-7-(isobutylamino)-3-methoxy-5,6,7,8,9,10-hexahydro-8aH-9,4b-(epiminoethano)phenanthrene-6,8a-diol]	503 ± 43.5	43 ± 3.79	328 ± 22.1	93.7 ± 1.76
CN[C@@H]1C[C@@]2(O)[C@H]3Cc4ccc(O)cc4[C@@]2(CCN3CC2CC2)C[C@@H]1O [Compound 35, (4bR,6S,7R,8aS,9R)-11-(cyclopropylmethyl)-7-(methylamino)-5,6,7,8,9,10-hexahydro-8aH-9,4b-(epiminoethano)phenanthrene-3,6,8a-triol]	2.55 ± 0.33	25.7 ± 0.88	0.2 ± 0.042	97.3 ± 2.85
Oc1ccc2c(c1)[C@]13CCN(CC4CC4)[C@H](C2)[C@]1(O)C[C@@H](NCc1ccccc1)[C@@H](O)C3 [Compound 36, (4bR,6S,7R,8aS,9R)-7-(benzylamino)-11-(cyclopropylmethyl)-5,6,7,8,9,10-hexahydro-8aH-9,4b-(epiminoethano)phenanthrene-3,6,8a-triol]	2.36 ± 0.64	24.3 ± 0.88	0.34 ± 0.033	62 ± 3.06
Oc1ccc2c(c1)[C@]13CCN(CC4CC4)[C@H](C2)[C@]1(O)C[C@@H](NCc1ccccc1)[C@H](O)C3 [Compound 37, (4bR,6R,7R,8aS,9R)-7-(benzylamino)-11-(cyclopropylmethyl)-5,6,7,8,9,10-hexahydro-8aH-9,4b-(epiminoethano)phenanthrene-3,6,8a-triol]	3.35 ± 0.41	24.3 ± 0.88	0.5 ± 0.039	87.7 ± 2.19
Oc1ccc2c(c1)[C@]13CCN(CC4CC4)[C@H](C2)[C@]1(O)C[C@@H](N1CCCC1)[C@@H](O)C3 [Compound 38, (4bR,6S,7R,8aS,9R)-11-(cyclopropylmethyl)-7-(pyrrolidin-1-yl)-5,6,7,8,9,10-hexahydro-8aH-9,4b-(epiminoethano)phenanthrene-3,6,8a-triol]	1.27 ± 0.19	23.3 ± 1.86	0.33 ± 0.022	80 ± 3.79
Oc1ccc2c(c1)[C@]13CCN(CC4CC4)[C@H](C2)[C@]1(O)C[C@@H](N1CCOCC1)[C@@H](O)C3 [Compound 39, (4bR,6S,7R,8aS,9R)-11-(cyclopropylmethyl)-7-morpholino-5,6,7,8,9,10-hexahydro-8aH-9,4b-(epiminoethano)phenanthrene-3,6,8a-triol]	> 20000	2	> 20000	1
O=C(O)CN[C@@H]1C[C@@]2(O)[C@H]3Cc4ccc(O)cc4[C@@]2(CCN3CC2CC2)C[C@@H]1O [Compound 40, ((4bR,6S,7R,8aS,9R)-11-(cyclopropylmethyl)-3,6,8a-trihydroxy-6,7,8,8a,9,10-hexahydro-5H-9,4b-(epiminoethano)phenanthren-7-yl)glycine]	> 20000	2	7.24 ± 0.65	43 ± 3.06
COc1ccc2c(c1)[C@@]13CC[C@H](NCC(C)C)C[C@@]1(O)[C@@H](C2)N(CC1CC1)CC3 [Compound 41, (4bS,7S,8aS,9R)-11-(cyclopropylmethyl)-7-(isobutylamino)-3-methoxy-5,6,7,8,9,10-hexahydro-8aH-9,4b-(epiminoethano)phenanthren-8a-ol]	674 ± 63.8	74.7 ± 4.67	41.6 ± 2.25	102 ± 2.19
CC(=O)N[C@H]1CC[C@]23CCN(CC4CC4)[C@H](Cc4ccc(O)cc42)[C@]3(O)C1 [Compound 47, N-((4bS,7S,8aS,9R)-11-(cyclopropylmethyl)-3,8a-dihydroxy-6,7,8,8a,9,10-hexahydro-5H-9,4b-(epiminoethano)phenanthren-7-yl)acetamide]	0.61 ± 0.17	44 ± 1.73	0.14 ± 0.027	105 ± 1.76
COc1ccc2c(c1)[C@]13CCN(CC4CC4)[C@H](C2)[C@]1(O)C[C@H](NC(=O)C(C)C)C(O)C3 (stereo partly drawn) [Compound 49, N-((4bR,7S,8aS,9R)-11-(cyclopropylmethyl)-6,8a-dihydroxy-3-methoxy-6,7,8,8a,9,10-hexahydro-5H-9,4b-(epiminoethano)phenanthren-7-yl)isobutyramide]	8460	27 ± 1.53	7940	90.3 ± 1.67
COc1ccc2c(c1)[C@]13CCN(CC4CC4)[C@H](C2)[C@]1(O)C[C@H](OCC(C)C)[C@H](O)C3 [Compound 51, (4bR,6R,7S,8aS,9R)-11-(cyclopropylmethyl)-7-isobutoxy-3-methoxy-5,6,7,8,9,10-hexahydro-8aH-9,4b-(epiminoethano)phenanthrene-6,8a-diol]	> 20000	7	14500 ± 1680	86.7 ± 3.18
COc1ccc2c(c1)[C@@]13CC[C@@H](O)C[C@@]1(O)[C@@H](C2)N(CC1CC1)CC3 [Compound 52, (4bS,7R,8aS,9R)-11-(cyclopropylmethyl)-3-methoxy-5,6,7,8,9,10-hexahydro-8aH-9,4b-(epiminoethano)phenanthrene-7,8a-diol]	1260	23.2 ± 4.07	1570 ± 97.4	91.3 ± 0.67
CCC(C)C[C@H]1C[C@@]2(O)[C@H]3Cc4ccc(O)cc4[C@@]2(CCN3CC2CC2)C[C@H]1O (stereo partly drawn) [Compound 53, (4bR,6R,7S,8aS,9R)-11-(cyclopropylmethyl)-7-(2-methylbutyl)-5,6,7,8,9,10-hexahydro-8aH-9,4b-(epiminoethano)phenanthrene-3,6,8a-triol]	> 20000	3	73.8 ± 11.8	62 ± 1.53
Oc1ccc2c(c1)[C@]13CCN(CC4CC4)[C@H](C2)[C@]1(O)C[C@H](CC1CCCC1)[C@H](O)C3 [Compound 54, (4bR,6R,7S,8aS,9R)-7-(cyclopentylmethyl)-11-(cyclopropylmethyl)-5,6,7,8,9,10-hexahydro-8aH-9,4b-(epiminoethano)phenanthrene-3,6,8a-triol]	> 20000	3	32.1 ± 2.76	97.7 ± 3.93
CC(C)C(=O)N[C@H]1C[C@@]2(O)[C@H]3Cc4ccc(O)cc4[C@@]2(CCN3CC2CC2)C[C@H]1O [Compound 58, N-((4bR,6R,7S,8aS,9R)-11-(cyclopropylmethyl)-3,6,8a-trihydroxy-6,7,8,8a,9,10-hexahydro-5H-9,4b-(epiminoethano)phenanthren-7-yl)isobutyramide]	80.9 ± 15.1	19.3 ± 1.45	38.1 ± 2.2	101 ± 1.2
